Reference: US10314838B2, “Compositions of buprenorphine and μ antagonists” (priority 2011, dated 2019)
Where two headings read alike, the source gives them in different places.

Assays:
[1] = Rat plasma Cmax of antagonists given with buprenorphine; conditions: male, sc
Method: Male rats weighing between 300-400 grams, the same weight range used in the microdialysis studies, were used for these PK experiments. […] Sample of blood were collected at 5, 15, 30, 60 and 120 minutes post dosing. […] The collection tubes were inverted 10-15 times and then held on ice prior to centrifugation.

[2] = 50 mg dose of naltrexone; cited from earlier work
[3] = system: NAc-sh dopamine and 5-HIAA; test: NAc-sh dopamine and 5-HIAA in WKY rats undergoing forced swim test; assay type: in vivo, rat; conditions: highest dose of Compound 1, buprenorphine 0.1 mg/kg, WKY rats in FST
Method: FIG. 6: The effect of Compound-1 on dopamine efflux in WKY rats undergoing forced swim test after treatment with Buprenorphine (0.1 mg/kg).
FIG. 7: The efflux of Compound-1 on 5-Hydroxyindoleacetic acid (5-HIAA) release in WKY rats undergoing the forced swim test after treatment with Buprenorphine (0.1 mg/kg).

[4] = Plasma Cmax in patients (LC/MS/MS); conditions: human, 8 mg
Method: Samples were analyzed using a 50 μL aliquot volume and a protein-precipitation extraction procedure followed by liquid chromatography/tandem mass spectrometry (LC/MS/MS).
Samples were analyzed using a 400 μL aliquot volume and a solid-phase extraction procedure followed by liquid chromatography/tandem mass spectrometry (LC/MS/MS).

[5] = biological target: T1, human μ opioid receptor (Homo sapiens, UniProt P35372); test: biochemical
T1 construct: expressed in transfected cells; membranes used
Method: Other functional assays could also be used based on cAMP or other downstream end-points following receptor activation; however the GTPγS is the preferred approach. […] Since the AAnAI is based on Cmax it can be calculated for any route of administration for the combination.
These values were determined using the GTPγS functional assay.
The [^35S]GTPγS assay measures the functional properties of a compound by quantifying the level of G-protein activation following agonist binding in studies using stably transfected cells, and is considered to be a measure of the efficacy of a compound. Membranes from CHO (Chinese Hamster Ovary) cells that stably expressed the cloned human μ opioid receptor were used in the experiments. […] The assay buffer consisted of 50 mM Tris-HCl, pH 7.4, 3 mM MgCl2, 0.2 mM EGTA, 3 μM GDP, and 100 mM NaCl. The final concentration of [35S]GTPγS was 0.080 nM. Nonspecific binding was measured by inclusion of 10 μM GTPγS. Binding was initiated by the addition of the membranes. After an incubation of 60 min at 30° C., the samples were filtered through Schleicher & Schuell No. 32 glass fiber filters. The filters were washed three times with cold 50 mM Tris-HCl, pH 7.5, and were counted in 2 mL of Ecoscint scintillation fluid.

[6] = system: dopamine efflux in the Nucleus Accumbens shell (NAc-sh); test: In vivo microdialysis, buprenorphine-induced dopamine efflux; conditions: antagonist plus buprenorphine 0.1 mg/kg SC
Method: Experiments were conducted in rats to assess the ability of opioid antagonists to modulate buprenorphine-induced dopamine efflux in the Nucleus Accumbens shell (NAc-sh) region of the mesolimbic region of the brain. Male rats weighing 300-400 grams were used for all studies. To measure the efflux of dopamine in the NAc-sh an in vivo microdialysis method was utilized in free-moving rats. This method allows the sampling of extracellular cerebrospinal fluid (CSF) from specific brain regions of interest and measurement of neurotransmitter concentrations following the analysis of sampled dialysate with HPLC-EC.
Each rat underwent surgical implantation of microdialysis guide cannula (CMA 12, CMA Microdialysis) to facilitate the insertion of the microdialysis probe later on. Rats were anesthetized with a mixture of ketamine/xylazine (80/6 mg/kg IP) and placed in a stereotaxic apparatus. […] Guide cannula were capped with dummy probes until microdialysis probe insertion. On the day prior to experimentation (3-4 days post-surgery), animals were weighed to determine appropriate dose for test articles. A microdialysis probe (CMA 12, 2 mm membrane, CMA microdialysis) was then inserted through the guide cannula. […] Each sample was analyzed via HPLC-EC to determine neurotransmitter concentration of dopamine based upon a six-point standard curve.

T1 sequence (P35372 whole entry): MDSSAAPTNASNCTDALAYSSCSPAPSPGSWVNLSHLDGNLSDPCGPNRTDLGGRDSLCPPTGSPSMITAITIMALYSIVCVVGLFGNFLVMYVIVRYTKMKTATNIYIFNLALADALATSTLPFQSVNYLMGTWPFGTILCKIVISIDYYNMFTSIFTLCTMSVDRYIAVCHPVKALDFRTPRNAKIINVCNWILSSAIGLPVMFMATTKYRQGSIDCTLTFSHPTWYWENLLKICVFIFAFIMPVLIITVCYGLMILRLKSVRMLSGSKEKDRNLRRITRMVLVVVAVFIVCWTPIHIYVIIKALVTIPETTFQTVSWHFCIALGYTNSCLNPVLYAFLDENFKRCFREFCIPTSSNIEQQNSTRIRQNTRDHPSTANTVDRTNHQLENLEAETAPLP

Structure (SMILES) | Cmax ([1]; 0.1 mg/kg) [ng/mL] | Cmax ([1]; 0.3 mg/kg) [ng/mL] | Cmax ([1]; 1 mg/kg) [ng/mL] | Cmax [2] | Buprenorphine effect on 5-HIAA [3] | Buprenorphine effect on NAc-sh dopamine [3] | Cmax [4] [ng/mL] | Cmax ([4]; other: sublingual) [nM] | IC50 [5] [nM] | Imax [5] [%] | Cmax ([1]; 0.03 mg/kg) [ng/mL] | NAc-sh dopamine efflux induced by buprenorphine [6]
O=C1CC[C@@]2(O)[C@H]3Cc4ccc(O)c5c4[C@@]2(CCN3CC2CC2)[C@H]1O5 [Naltrexone, naltrexone] | 19.3 | 76.9 | 169 | approximately 10 ng/mL |  |  |  |  |  |  |  | 
NC(=O)c1ccc2c(c1O)[C@]13CCN(CC4CC4)[C@H](C2)[C@]1(O)CCC(=O)C3 [Compound-1] |  | 11.8 | 75.5 |  | complete attenuation of buprenorphine effects | complete attenuation of buprenorphine effects | 25.8 | 69.6 | 0.9 | >95 |  | 
C=C1CC[C@@]2(O)[C@H]3Cc4ccc(C(N)=O)c(O)c4[C@@]2(CCN3CC2CC2)C1 [Compound-10] | 18.1 | 29.5 |  |  |  |  |  |  | 0.23 |  | 2.24 | 
C=C1CC[C@@]2(O)[C@H]3Cc4ccc(O)c5c4[C@@]2(CCN3CC2CC2)[C@H]1O5 [Nalmefene, nalmefene] | 14.1 | 25.6 | 162 |  |  |  |  |  |  |  |  | more potent
